Results as given in ChEMBL document CHEMBL3286146, “Prediction of anti-tumor chemical probes of a traditional Chinese medicine formula by HPLC fingerprinting combined with molecular docking” (Eur J Med Chem, 2014).

How the values were obtained:
Tumor necrosis factor = Tumor necrosis factor (Homo sapiens, UniProt P01375); assay: Binding affinity to TNF-alpha (unknown origin)
[1] = Retention time of the compound by chromatography; type: physicochemical
HepG2 [2] = assay: Anticancer activity against human HepG2 cells assessed as cell viability after 48 hrs by MTT assay; type: functional, cell-based; conditions: HepG2, 48 h
Interleukin-2 = Interleukin-2 (Homo sapiens, UniProt P60568); assay: Binding affinity to IL-2 (unknown origin)
[3] = Binding affinity to Bcl-xL (unknown origin); parameters: species or system Homo sapiens
HepG2 [4] = assay: Anticancer activity against human HepG2 cells assessed as cell viability after 24 hrs by MTT assay; type: functional, cell-based; conditions: HepG2, 24 h

Tumor necrosis factor, sequence (P01375 whole entry): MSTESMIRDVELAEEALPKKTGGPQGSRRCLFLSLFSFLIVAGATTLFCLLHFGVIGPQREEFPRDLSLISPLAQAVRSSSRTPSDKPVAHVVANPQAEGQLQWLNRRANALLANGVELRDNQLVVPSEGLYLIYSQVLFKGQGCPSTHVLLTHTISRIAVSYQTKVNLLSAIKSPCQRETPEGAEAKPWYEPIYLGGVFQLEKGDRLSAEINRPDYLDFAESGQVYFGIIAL
Interleukin-2, sequence (P60568 whole entry): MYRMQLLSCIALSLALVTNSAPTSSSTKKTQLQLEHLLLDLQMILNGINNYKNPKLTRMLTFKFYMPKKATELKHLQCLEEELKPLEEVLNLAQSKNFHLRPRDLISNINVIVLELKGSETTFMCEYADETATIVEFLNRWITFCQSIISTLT

Compound | Kd (Tumor necrosis factor) [nM] | Retention_time [1] [min] | IC50 (HepG2 [2]) [nM] | Kd (Interleukin-2) [nM] | Kd [3] [nM] | IC50 (HepG2 [4]) [nM]
CC(CC(=O)C[C@@H](C)[C@H]1CC(=O)[C@@]2(C)C3=C(C(=O)C[C@]12C)[C@@]1(C)CC[C@H](O)C(C)(C)[C@@H]1C[C@@H]3O)C(=O)O (stereo partly specified) [GANODERIC ACID B] | 8.81 | 47.5 | 97400 |  |  | 
COc1ccc(-c2coc3cc(O[C@@H]4O[C@H](CO)[C@@H](O)[C@H](O)[C@H]4O)ccc3c2=O)cc1O | 1820 | 26.4 | > 100000 | 35.6 | 110 | 
COc1ccc(-c2coc3cc(O)ccc3c2=O)cc1O [CALYCOSIN] |  | 34.5 | > 100000 |  |  | 
CC(CC(=O)C[C@@H](C)[C@H]1CC(=O)[C@@]2(C)C3=C(C(=O)C[C@]12C)[C@@]1(C)CCC(=O)C(C)(C)[C@@H]1C[C@@H]3O)C(=O)O (stereo partly specified) [GANODERIC ACID D] | 18.6 | 45.7 | 22900 |  |  | 
CC(C)(O)[C@@H]1CC[C@](C)([C@H]2[C@@H](O)C[C@@]3(C)[C@@H]4C[C@H](O[C@@H]5O[C@H](CO)[C@@H](O)[C@H](O)[C@H]5O)[C@H]5C(C)(C)[C@@H](O[C@@H]6OC[C@@H](O)[C@H](O)[C@H]6O)CC[C@@]56C[C@@]46CC[C@]23C)O1 |  | 28.6 | > 100000 |  | 0.126 | 
C[C@H](CC(=O)C[C@@H](C)[C@H]1C[C@H](O)[C@@]2(C)C3=C(C(=O)C[C@]12C)[C@@]1(C)CC[C@H](O)C(C)(C)[C@@H]1C[C@@H]3O)C(=O)O [GANODERIC ACID C2] | 8.39 | 49.8 | > 100000 |  |  | 
CC(=O)O[C@H]1CC[C@]2(C)[C@H]3CC=C4[C@@H]5CC(C)(C)CC[C@]5(C(=O)O)CC[C@@]4(C)[C@]3(C)CC[C@H]2C1(C)C [ACETYL OLEANOLIC ACID] |  | 39.8 | > 100000 |  |  | 
O=C(NS(=O)(=O)c1ccc(NCCSc2ccccc2)c([N+](=O)[O-])c1)c1ccc(-c2ccc(F)cc2)cc1 |  |  |  |  | 810 | 
CC(=O)O[C@@H]1C(=O)C2=C(C(=O)C[C@H]3C(C)(C)[C@@H](O)CC[C@]23C)[C@]2(C)C(=O)C[C@H]([C@H](C)CC(=O)CC(C)C(=O)O)[C@@]12C (stereo partly specified) [GANODERIC ACID H] | 2.45 | 51.1 | 70300 |  |  | 
COc1ccc(-c2coc3cc(O)ccc3c2=O)cc1 [FORMONONETIN] |  | 48.5 |  | 5470 | 7750 | 60500
CC(CC(=O)C[C@@H](C)[C@H]1CC(=O)[C@@]2(C)C3=C(C(=O)[C@@H](O)[C@]12C)[C@@]1(C)CC[C@H](O)C(C)(C)[C@@H]1C[C@@H]3O)C(=O)O (stereo partly specified) [GANODERIC ACID G] |  | 46.5 | 85600 |  |  | 
O=c1cc(-c2ccc(O)cc2)oc2cc(O[C@@H]3O[C@H](CO)[C@@H](O)[C@H](O)[C@H]3O)cc(O)c12 [APIGETRIN] | 200 | 28.6 |  |  | 76.2 | 90600
COc1ccc(-c2coc3cc(O[C@@H]4O[C@H](CO)[C@@H](O)[C@H](O)[C@H]4O)ccc3c2=O)cc1 [ONONIN] |  | 39.3 | 40800 | 120 | 170 | 
C[C@H](CCC=C(CO)CO)[C@H]1CC[C@@]2(C)C3=CC[C@H]4C(C)(C)C(=O)CC[C@]4(C)C3=CC[C@]12C [GANODERIOL F] | 16.8 | 10.3 | 20700 |  |  | 
C[C@@H]1CC[C@@]2(OC1)O[C@H]1C[C@H]3[C@@H]4CC=C5C[C@@H](O[C@@H]6O[C@H](CO)[C@@H](O)[C@H](O)[C@H]6O)CC[C@]5(C)[C@H]4CC[C@]3(C)[C@H]1[C@@H]2C [DISOGLUSIDE] |  |  |  | 0.0289 |  | 30300
CC(=O)O[C@@H]1C(=O)C2=C(C(=O)C[C@H]3C(C)(C)C(=O)CC[C@]23C)[C@]2(C)C(=O)C[C@H]([C@H](C)CC(=O)CC(C)C(=O)O)[C@@]12C (stereo partly specified) [GANODERIC ACID F] | 2.69 | 54.4 |  |  |  | 19600
O=c1c(-c2ccc(O)cc2)coc2cc(O[C@@H]3O[C@H](CO)[C@@H](O)[C@H](O)[C@H]3O)ccc12 [DAIDZIN] |  | 8.61 |  | 3380 |  | 61200
O=c1cc(-c2ccc(O)c(O)c2)oc2cc(O)cc(O)c12 [LUTEOLIN] |  | 38.1 |  |  |  | 80800
COc1cccc2c1C(=O)c1c(O)c3c(c(O)c1C2=O)C[C@@](O)(C(=O)CO)C[C@@H]3O[C@H]1C[C@H](N)[C@H](O)[C@H](C)O1 [DOXORUBICIN] |  |  |  |  |  | 12500
C[C@@H]1CC[C@@]2(OC1)O[C@H]1C[C@H]3[C@@H]4CC=C5C[C@@H](O[C@@H]6O[C@H](CO)[C@@H](O)[C@H](O[C@@H]7O[C@H](CO)[C@@H](O)[C@H](O)[C@H]7O)[C@H]6O)CC[C@]5(C)[C@H]4CC[C@]3(C)[C@H]1[C@@H]2C |  | 16.9 |  |  |  | 
C/C=C1\[C@H](O[C@@H]2O[C@H](CO)[C@@H](O)[C@H](O)[C@H]2O)OC=C(C(=O)OC)[C@H]1CC(=O)OC[C@H]1O[C@@H](OCCc2ccc(O)cc2)[C@H](O)[C@@H](O)[C@@H]1O |  | 13.5 | > 100000 | 2.59 | 2.4 | 
C[C@H](CC(=O)C[C@@H](C)[C@H]1C[C@H](O)[C@@]2(C)C3=C(C(=O)C[C@]12C)[C@@]1(C)CCC(=O)C(C)(C)[C@@H]1C[C@@H]3O)C(=O)O [GANODERIC ACID A] | 8.53 | 50.4 | 38700 |  |  | 
O=c1cc(-c2ccc(O)c(O)c2)oc2cc(O[C@@H]3O[C@H](CO)[C@@H](O)[C@H](O)[C@H]3O)cc(O)c12 [GALUTEOLIN] | 790 | 31.2 |  | 20 | 9.89 | 20800
